Experiment [1] deals with Mus musculus. Nature of the experiment: Anti-inflammatory activity in complete Freund's adjuvant/MOG (35 to 55 residues)/pertussis toxin-induced experimental autoimmune encephalomyelitis C57BL/6 mouse model assessed as appearance of normal myelin structure at 30 mg/kg, ip bid administered 6 days post immunization and measured every 3 days for 28 days post immunization by Luxol fast blue staining based bright field fluorescence microscopic analysis. Format: functional, organism-based. The settings on record: time 22.0 day.

Experiment [2] relates to Mus musculus. Kind of experiment: Anti-inflammatory activity in complete Freund's adjuvant/MOG (35 to 55 residues)/pertussis toxin-induced experimental autoimmune encephalomyelitis C57BL/6 mouse model assessed as reduction in clinical scores at 30 mg/kg, ip bid administered 6 days post immunization and measured every 3 days for 28 days post immunization. Format: functional, organism-based. The settings on record: time 22.0 day.

For experiment [3], the system named is Microglia. Kind of experiment: Antiinflammatory activity against LPS induced neonatal rat cerebral cortex microglia by immunofluorescence assay. Format: functional, cell-based.
The test system of experiment [4] is Mus musculus. Kind of experiment: Anti-inflammatory activity in complete Freund's adjuvant/MOG (35 to 55 residues)/pertussis toxin-induced experimental autoimmune encephalomyelitis C57BL/6 mouse model assessed as reduction in TNF-alpha level at 30 mg/kg, ip bid administered 6 days post immunization and measured every 3 days for 28 days post immunization. Format: functional, organism-based. The note with it: time 22.0 day.

Experiment [5] deals with Mus musculus. Kind of experiment: Anti-inflammatory activity in complete Freund's adjuvant/MOG (35 to 55 residues)/pertussis toxin-induced experimental autoimmune encephalomyelitis C57BL/6 mouse model assessed as myelin density at 60 mg/kg, ip bid administered 6 days post immunization and measured every 3 days for 28 days post immunization by Luxol fast blue staining based bright field fluorescence microscopic analysis. Format: functional, organism-based. The note with it: time 22.0 day.

Experiment [6] concerns Mus musculus. Nature of the experiment: Anti-inflammatory activity in complete Freund's adjuvant/MOG (35 to 55 residues)/pertussis toxin-induced experimental autoimmune encephalomyelitis C57BL/6 mouse model assessed as reduction in IL-6 level at 30 mg/kg, ip bid administered 6 days post immunization and measured every 3 days for 28 days post immunization. Format: functional, organism-based. The note with it: time 22.0 day.

Experiment [7] concerns Mus musculus. Nature of the experiment: Anti-inflammatory activity in complete Freund's adjuvant/MOG (35 to 55 residues)/pertussis toxin-induced experimental autoimmune encephalomyelitis C57BL/6 mouse model assessed as change in cumulative scores at 30 mg/kg, ip bid administered 6 days post immunization and measured every 3 days for 28 days post immunization. The note with it: time 22.0 day. Format: functional, organism-based.

Experiment [8] addresses T1, Bromodomain-containing protein 4 (Homo sapiens, UniProt O60885). Nature of the experiment: Binding affinity to BRD4 BD2 (unknown origin) expressed in Escherichia coli BL21 (DE3) at 1:1 protein:compound ratio by MST assay.
A short description of experiment [9]: Selectivity ratio of Kd for binding affinity to BRD4 BD2 (unknown origin) by MST assay to Kd for binding affinity to BRD4 BD1 (unknown origin) by MST assay.
The target of experiment [10] is T1, Bromodomain-containing protein 4. Kind of experiment: Binding affinity to BRD4 BD1 (unknown origin) expressed in Escherichia coli BL21 (DE3) at 1:1 protein:compound ratio by MST assay.

The source made the active and inactive calls. No cut-off for these calls is given here.

On to `COC(=O)/C=C/C(=O)OC`, for which the result in experiment [1], in experiment [2], in [3], in experiment [4], in [5] and in experiment [6] was Active. For the same compound, the result in [7] was Active.
In the case of `Cc1c(-c2cnccc2-c2ccnc3nc[nH]c23)cnn1C`, the Kd in experiment [8] was 178000 nM; in experiment [10], 2400 nM. Besides, the Selectivity ratio in [9] came out at 73.
Consider `Cc1nn(CC2CCC2)c(C)c1-c1cncc(-c2ccnc3nc[nH]c23)c1`, for which the Kd in experiment [8] came out at 13000 nM; in [10] it was 250 nM. In addition, the Selectivity ratio in experiment [9] was found to be 51.
For the compound `CCn1nc(C)c(-c2cncc(-c3ccnc4nc[nH]c34)c2)c1C`, the Kd amounted to 16000 nM in experiment [8] and 480 nM in experiment [10]. The Selectivity ratio in [9] stood at 34.
In the case of `Cc1nn(C)c(C)c1-c1cc2c(c(-c3ccnc4nc[nH]c34)c1)OCC2`, the values for the Kd in experiment [8] and in [10] were 3100 nM and 180 nM, respectively. In addition, the Selectivity ratio in [9] turned out to be 17.
For `Cc1nn(C)c(C)c1-c1cncc(-c2ccnc3nc[nH]c23)c1` the same measures were 30000 nM, 620 nM and 48.
With `Cn1cc(-c2cncc(-c3ccnc4nc[nH]c34)c2)c(C(F)(F)F)n1`, the dissociation constant (Kd) in experiment [8] came out at 11000 nM; in [10], 330 nM. Also, the Selectivity ratio in [9] came to 35.
Regarding `Cc1nn(C)cc1-c1cncc(-c2ccnc3nc[nH]c23)c1`, the Kd in experiment [8] stood at 28000 nM; in experiment [10] it was 660 nM. Moreover, the Selectivity ratio in experiment [9] amounted to 42.
Taken in the same sequence, the figures for `Cc1nn(CC2CCCCC2)c(C)c1-c1cncc(-c2ccnc3nc[nH]c23)c1` were 9300 nM, 300 nM and 30.
Take `Cc1c(-c2cncc(-c3ccnc4nc[nH]c34)c2)cnn1C`: the equilibrium dissociation constant (Kd) amounted to 31000 nM in [8] and 690 nM in [10]. Further, the Selectivity ratio in experiment [9] is 46.
Turning to `Cc1nn(CC2CCCC2)c(C)c1-c1cncc(-c2ccnc3nc[nH]c23)c1`, the Kd worked out at 13000 nM in experiment [8] and 990 nM in experiment [10]. Moreover, the Selectivity ratio in experiment [9] was 13.

Values taken from ChEMBL document CHEMBL5528022, “Discovery of a brain-permeable bromodomain and extra terminal domain (BET) inhibitor with selectivity for BD1 for the treatment of multiple sclerosis” (Eur J Med Chem, 2024).
